Reference: ChEMBL document CHEMBL5303573, “Mapping human microbiome drug metabolism by gut bacteria and their genes” (Nature, 2019)

Test: The drug is tested on Bacteroides dorei strain: DSM17855 for biotransformation. The drug concentrations were measured before and after a 12-h incubation by liquid-chromatography-coupled mass spectrometry (LC–MS)
Conditions: phocaeicola dorei, 2 µM

SMILES | Bacterial Biotransformation
C#C[C@]1(OC(C)=O)CC[C@H]2[C@@H]3CCC4=CC(=O)CC[C@@H]4[C@H]3CC[C@@]21C [NORETHINDRONE ACETATE] | Compound metabolized
CC1Cc2ccccc2N1NC(=O)c1ccc(Cl)c(S(N)(=O)=O)c1 (stereo not given) [INDAPAMIDE] | Compound NOT metabolized
OCCN1CCN(CCCN2c3ccccc3Sc3ccc(C(F)(F)F)cc32)CC1 [FLUPHENAZINE] | Compound metabolized

Test: The drug is tested on Bifidobacterium longum subsp. Infantis strain: CCUG52486 for biotransformation. The drug concentrations were measured before and after a 12-h incubation by liquid-chromatography-coupled mass spectrometry (LC–MS)
Conditions: 2 µM

SMILES | Bacterial Biotransformation
C#C[C@]1(OC(C)=O)CC[C@H]2[C@@H]3CCC4=CC(=O)CC[C@@H]4[C@H]3CC[C@@]21C [NORETHINDRONE ACETATE] | Compound NOT metabolized
CC1Cc2ccccc2N1NC(=O)c1ccc(Cl)c(S(N)(=O)=O)c1 (stereo not given) [INDAPAMIDE] | Compound NOT metabolized
OCCN1CCN(CCCN2c3ccccc3Sc3ccc(C(F)(F)F)cc32)CC1 [FLUPHENAZINE] | Compound NOT metabolized

Test: The drug is tested on Anaerotruncus colihominis strain: DSM17241 for biotransformation. The drug concentrations were measured before and after a 12-h incubation by liquid-chromatography-coupled mass spectrometry (LC–MS)
Conditions: 2 µM

SMILES | Bacterial Biotransformation
C#C[C@]1(OC(C)=O)CC[C@H]2[C@@H]3CCC4=CC(=O)CC[C@@H]4[C@H]3CC[C@@]21C [NORETHINDRONE ACETATE] | Compound metabolized

Test: The drug is tested on Bacteroides xylanisolvens strain: DSM18836 for biotransformation. The drug concentrations were measured before and after a 12-h incubation by liquid-chromatography-coupled mass spectrometry (LC–MS)
Conditions: 2 µM

SMILES | Bacterial Biotransformation
C#C[C@]1(OC(C)=O)CC[C@H]2[C@@H]3CCC4=CC(=O)CC[C@@H]4[C@H]3CC[C@@]21C [NORETHINDRONE ACETATE] | Compound metabolized
CC1Cc2ccccc2N1NC(=O)c1ccc(Cl)c(S(N)(=O)=O)c1 (stereo not given) [INDAPAMIDE] | Compound NOT metabolized
OCCN1CCN(CCCN2c3ccccc3Sc3ccc(C(F)(F)F)cc32)CC1 [FLUPHENAZINE] | Compound metabolized

Test: The drug is tested on Ruminococcus gnavus strain: ATCC29149 for biotransformation. The drug concentrations were measured before and after a 12-h incubation by liquid-chromatography-coupled mass spectrometry (LC–MS)
Conditions: mediterraneibacter gnavus, 2 µM

SMILES | Bacterial Biotransformation
C#C[C@]1(OC(C)=O)CC[C@H]2[C@@H]3CCC4=CC(=O)CC[C@@H]4[C@H]3CC[C@@]21C [NORETHINDRONE ACETATE] | Compound metabolized
CC1Cc2ccccc2N1NC(=O)c1ccc(Cl)c(S(N)(=O)=O)c1 (stereo not given) [INDAPAMIDE] | Compound NOT metabolized
OCCN1CCN(CCCN2c3ccccc3Sc3ccc(C(F)(F)F)cc32)CC1 [FLUPHENAZINE] | Compound NOT metabolized

Conditions: akkermansia muciniphila, 12 h, 2 µM
Description: The drug is tested on Akkermansia muciniphila strain: ATCC BAA-835 for biotransformation. The drug concentrations were measured before and after a 12-h incubation by liquid-chromatography-coupled mass spectrometry (LC–MS)

SMILES | Bacterial Biotransformation
C#C[C@]1(OC(C)=O)CC[C@H]2[C@@H]3CCC4=CC(=O)CC[C@@H]4[C@H]3CC[C@@]21C [NORETHINDRONE ACETATE] | Compound metabolized
CC1Cc2ccccc2N1NC(=O)c1ccc(Cl)c(S(N)(=O)=O)c1 (stereo not given) [INDAPAMIDE] | Compound NOT metabolized
OCCN1CCN(CCCN2c3ccccc3Sc3ccc(C(F)(F)F)cc32)CC1 [FLUPHENAZINE] | Compound NOT metabolized

Test: The drug is tested on Eubacterium hallii strain: DSM3353 for biotransformation. The drug concentrations were measured before and after a 12-h incubation by liquid-chromatography-coupled mass spectrometry (LC–MS)
Conditions: anaerobutyricum hallii, 2 µM

SMILES | Bacterial Biotransformation
C#C[C@]1(OC(C)=O)CC[C@H]2[C@@H]3CCC4=CC(=O)CC[C@@H]4[C@H]3CC[C@@]21C [NORETHINDRONE ACETATE] | Compound metabolized
CC1Cc2ccccc2N1NC(=O)c1ccc(Cl)c(S(N)(=O)=O)c1 (stereo not given) [INDAPAMIDE] | Compound NOT metabolized
OCCN1CCN(CCCN2c3ccccc3Sc3ccc(C(F)(F)F)cc32)CC1 [FLUPHENAZINE] | Compound metabolized

Test: The drug is tested on Bifidobacterium ruminantium strain: fecal isolate for biotransformation. The drug concentrations were measured before and after a 12-h incubation by liquid-chromatography-coupled mass spectrometry (LC–MS)
Conditions: 2 µM

SMILES | Bacterial Biotransformation
C#C[C@]1(OC(C)=O)CC[C@H]2[C@@H]3CCC4=CC(=O)CC[C@@H]4[C@H]3CC[C@@]21C [NORETHINDRONE ACETATE] | Compound NOT metabolized
CC1Cc2ccccc2N1NC(=O)c1ccc(Cl)c(S(N)(=O)=O)c1 (stereo not given) [INDAPAMIDE] | Compound NOT metabolized
OCCN1CCN(CCCN2c3ccccc3Sc3ccc(C(F)(F)F)cc32)CC1 [FLUPHENAZINE] | Compound NOT metabolized

Test: The drug is tested on Clostridium ramosum strain: DSM1402 for biotransformation. The drug concentrations were measured before and after a 12-h incubation by liquid-chromatography-coupled mass spectrometry (LC–MS)
Conditions: thomasclavelia ramosa, 2 µM

SMILES | Bacterial Biotransformation
C#C[C@]1(OC(C)=O)CC[C@H]2[C@@H]3CCC4=CC(=O)CC[C@@H]4[C@H]3CC[C@@]21C [NORETHINDRONE ACETATE] | Compound NOT metabolized
CC1Cc2ccccc2N1NC(=O)c1ccc(Cl)c(S(N)(=O)=O)c1 (stereo not given) [INDAPAMIDE] | Compound NOT metabolized
OCCN1CCN(CCCN2c3ccccc3Sc3ccc(C(F)(F)F)cc32)CC1 [FLUPHENAZINE] | Compound metabolized

Test: The drug is tested on Bacteroides fragilis strain: HMW615 for biotransformation. The drug concentrations were measured before and after a 12-h incubation by liquid-chromatography-coupled mass spectrometry (LC–MS)
Conditions: 2 µM

SMILES | Bacterial Biotransformation
C#C[C@]1(OC(C)=O)CC[C@H]2[C@@H]3CCC4=CC(=O)CC[C@@H]4[C@H]3CC[C@@]21C [NORETHINDRONE ACETATE] | Compound metabolized
CC1Cc2ccccc2N1NC(=O)c1ccc(Cl)c(S(N)(=O)=O)c1 (stereo not given) [INDAPAMIDE] | Compound NOT metabolized
OCCN1CCN(CCCN2c3ccccc3Sc3ccc(C(F)(F)F)cc32)CC1 [FLUPHENAZINE] | Compound NOT metabolized

Test: The drug is tested on Bacteroides finegoldii strain: DSM17565 for biotransformation. The drug concentrations were measured before and after a 12-h incubation by liquid-chromatography-coupled mass spectrometry (LC–MS)
Conditions: 2 µM

SMILES | Bacterial Biotransformation
C#C[C@]1(OC(C)=O)CC[C@H]2[C@@H]3CCC4=CC(=O)CC[C@@H]4[C@H]3CC[C@@]21C [NORETHINDRONE ACETATE] | Compound metabolized
OCCN1CCN(CCCN2c3ccccc3Sc3ccc(C(F)(F)F)cc32)CC1 [FLUPHENAZINE] | Compound metabolized

Test: The drug is tested on Eubacterium ventriosum strain: ATCC27560 for biotransformation. The drug concentrations were measured before and after a 12-h incubation by liquid-chromatography-coupled mass spectrometry (LC–MS)
Format: ADME
Parameters: dose 2 uM, timepoint 0 vs 12 hours
Conditions: 2 µM

SMILES | Bacterial Biotransformation
C#C[C@]1(OC(C)=O)CC[C@H]2[C@@H]3CCC4=CC(=O)CC[C@@H]4[C@H]3CC[C@@]21C [NORETHINDRONE ACETATE] | Compound metabolized
OCCN1CCN(CCCN2c3ccccc3Sc3ccc(C(F)(F)F)cc32)CC1 [FLUPHENAZINE] | Compound metabolized

Conditions: limosilactobacillus reuteri cf48-3a, 12 h, 2 µM
Description: The drug is tested on Lactobacillus reuteri CF48-3A strain: BEI HM-102 for biotransformation. The drug concentrations were measured before and after a 12-h incubation by liquid-chromatography-coupled mass spectrometry (LC–MS)

SMILES | Bacterial Biotransformation
C#C[C@]1(OC(C)=O)CC[C@H]2[C@@H]3CCC4=CC(=O)CC[C@@H]4[C@H]3CC[C@@]21C [NORETHINDRONE ACETATE] | Compound NOT metabolized
OCCN1CCN(CCCN2c3ccccc3Sc3ccc(C(F)(F)F)cc32)CC1 [FLUPHENAZINE] | Compound metabolized

Test: The drug is tested on Collinsella aerofaciens strain: ATCC25986 for biotransformation. The drug concentrations were measured before and after a 12-h incubation by liquid-chromatography-coupled mass spectrometry (LC–MS)
Conditions: 2 µM

SMILES | Bacterial Biotransformation
C#C[C@]1(OC(C)=O)CC[C@H]2[C@@H]3CCC4=CC(=O)CC[C@@H]4[C@H]3CC[C@@]21C [NORETHINDRONE ACETATE] | Compound metabolized
OCCN1CCN(CCCN2c3ccccc3Sc3ccc(C(F)(F)F)cc32)CC1 [FLUPHENAZINE] | Compound NOT metabolized

Conditions: roseburia intestinalis, 12 h, 2 µM
Description: The drug is tested on Roseburia intestinalis strain: L1-82 for biotransformation. The drug concentrations were measured before and after a 12-h incubation by liquid-chromatography-coupled mass spectrometry (LC–MS)

SMILES | Bacterial Biotransformation
CC1Cc2ccccc2N1NC(=O)c1ccc(Cl)c(S(N)(=O)=O)c1 (stereo not given) [INDAPAMIDE] | Compound NOT metabolized
OCCN1CCN(CCCN2c3ccccc3Sc3ccc(C(F)(F)F)cc32)CC1 [FLUPHENAZINE] | Compound metabolized

Conditions: bacteroides intestinalis, 12 h, 2 µM
Description: The drug is tested on Bacteroides intestinalis strain: DSM17393 for biotransformation. The drug concentrations were measured before and after a 12-h incubation by liquid-chromatography-coupled mass spectrometry (LC–MS)

SMILES | Bacterial Biotransformation
C#C[C@]1(OC(C)=O)CC[C@H]2[C@@H]3CCC4=CC(=O)CC[C@@H]4[C@H]3CC[C@@]21C [NORETHINDRONE ACETATE] | Compound metabolized
CC1Cc2ccccc2N1NC(=O)c1ccc(Cl)c(S(N)(=O)=O)c1 (stereo not given) [INDAPAMIDE] | Compound NOT metabolized
OCCN1CCN(CCCN2c3ccccc3Sc3ccc(C(F)(F)F)cc32)CC1 [FLUPHENAZINE] | Compound metabolized

Conditions: bacteroides thetaiotaomicron, 12 h, 2 µM
Description: The drug is tested on Bacteroides thetaiotaomicron strain: 3731 for biotransformation. The drug concentrations were measured before and after a 12-h incubation by liquid-chromatography-coupled mass spectrometry (LC–MS)

SMILES | Bacterial Biotransformation
C#C[C@]1(OC(C)=O)CC[C@H]2[C@@H]3CCC4=CC(=O)CC[C@@H]4[C@H]3CC[C@@]21C [NORETHINDRONE ACETATE] | Compound metabolized
CC1Cc2ccccc2N1NC(=O)c1ccc(Cl)c(S(N)(=O)=O)c1 (stereo not given) [INDAPAMIDE] | Compound NOT metabolized
OCCN1CCN(CCCN2c3ccccc3Sc3ccc(C(F)(F)F)cc32)CC1 [FLUPHENAZINE] | Compound metabolized

Conditions: bacteroides fragilis, 12 h, 2 µM
Description: The drug is tested on Bacteroides fragilis strain: NCTC 9343 for biotransformation. The drug concentrations were measured before and after a 12-h incubation by liquid-chromatography-coupled mass spectrometry (LC–MS)

SMILES | Bacterial Biotransformation
C#C[C@]1(OC(C)=O)CC[C@H]2[C@@H]3CCC4=CC(=O)CC[C@@H]4[C@H]3CC[C@@]21C [NORETHINDRONE ACETATE] | Compound metabolized
CC1Cc2ccccc2N1NC(=O)c1ccc(Cl)c(S(N)(=O)=O)c1 (stereo not given) [INDAPAMIDE] | Compound NOT metabolized
OCCN1CCN(CCCN2c3ccccc3Sc3ccc(C(F)(F)F)cc32)CC1 [FLUPHENAZINE] | Compound metabolized

Test: The drug is tested on Bacteroides sp. WH2 strain: WH2 for biotransformation. The drug concentrations were measured before and after a 12-h incubation by liquid-chromatography-coupled mass spectrometry (LC–MS)
Conditions: bacteroides sp. wh2, 12 h, 2 µM

SMILES | Bacterial Biotransformation
C#C[C@]1(OC(C)=O)CC[C@H]2[C@@H]3CCC4=CC(=O)CC[C@@H]4[C@H]3CC[C@@]21C [NORETHINDRONE ACETATE] | Compound metabolized
CC1Cc2ccccc2N1NC(=O)c1ccc(Cl)c(S(N)(=O)=O)c1 (stereo not given) [INDAPAMIDE] | Compound NOT metabolized
OCCN1CCN(CCCN2c3ccccc3Sc3ccc(C(F)(F)F)cc32)CC1 [FLUPHENAZINE] | Compound NOT metabolized
